Consider two compounds from BindingDB's records for patent US11746110 (Shenzhen Targetrx, 2023).

This experiment has as its target Tyrosine-protein kinase ABL1 (Homo sapiens, UniProt P00519). The experiment in a line: Biochemical Kinase Assay. The protocol: Reagents and materials: ABL (ThermoFisher, Cat. No. PV3585), ABL T315I(Thermo Fisher, Cat. No. PR7429B), Ret (Carna, Cat. No. 08-159-10 ug), RETV804M, Active (Signalchem, Cat. No. R02-12GG), ATP (Sigma, Cat. No. A7699-1G), DMSO (Sigma, Cat. No. D2650), 96-well plate (Corning, Cat. No. 3365), 384-well plate (Greiner, Cat. No. 784076), buffer solution (Thermo Fisher, Cat. No. PR4876B). Specific Assay Method: Compound formulation: The test compounds were dissolved in DMSO to prepare a 20 mM stock solution. Before use, the compounds were diluted in DMSO to 0.1 mM, and diluted into 11 concentrations with a 3-fold gradient. When addition, dilutions of 4-fold final concentration were then made with buffer solution. Kinase assay method: After preparing the buffer, the enzyme was mixed with pre-formulated and diluted compounds of different concentrations in duplicate for each concentration, and placed at room temperature for 30 minutes. The corresponding substrate and ATP were added thereto,and reacted at room temperature for 60 minutes (both a negative and a positive control were set). After the reaction, antibody was added for detection, Envision detection was carried out after 60 minutes incubation at room temperature, and data was collected. Data analysis and fitting were made according to XLfit5 software.

SMILES strings stand for the structures.

Sequence of Tyrosine-protein kinase ABL1 (P00519 whole entry): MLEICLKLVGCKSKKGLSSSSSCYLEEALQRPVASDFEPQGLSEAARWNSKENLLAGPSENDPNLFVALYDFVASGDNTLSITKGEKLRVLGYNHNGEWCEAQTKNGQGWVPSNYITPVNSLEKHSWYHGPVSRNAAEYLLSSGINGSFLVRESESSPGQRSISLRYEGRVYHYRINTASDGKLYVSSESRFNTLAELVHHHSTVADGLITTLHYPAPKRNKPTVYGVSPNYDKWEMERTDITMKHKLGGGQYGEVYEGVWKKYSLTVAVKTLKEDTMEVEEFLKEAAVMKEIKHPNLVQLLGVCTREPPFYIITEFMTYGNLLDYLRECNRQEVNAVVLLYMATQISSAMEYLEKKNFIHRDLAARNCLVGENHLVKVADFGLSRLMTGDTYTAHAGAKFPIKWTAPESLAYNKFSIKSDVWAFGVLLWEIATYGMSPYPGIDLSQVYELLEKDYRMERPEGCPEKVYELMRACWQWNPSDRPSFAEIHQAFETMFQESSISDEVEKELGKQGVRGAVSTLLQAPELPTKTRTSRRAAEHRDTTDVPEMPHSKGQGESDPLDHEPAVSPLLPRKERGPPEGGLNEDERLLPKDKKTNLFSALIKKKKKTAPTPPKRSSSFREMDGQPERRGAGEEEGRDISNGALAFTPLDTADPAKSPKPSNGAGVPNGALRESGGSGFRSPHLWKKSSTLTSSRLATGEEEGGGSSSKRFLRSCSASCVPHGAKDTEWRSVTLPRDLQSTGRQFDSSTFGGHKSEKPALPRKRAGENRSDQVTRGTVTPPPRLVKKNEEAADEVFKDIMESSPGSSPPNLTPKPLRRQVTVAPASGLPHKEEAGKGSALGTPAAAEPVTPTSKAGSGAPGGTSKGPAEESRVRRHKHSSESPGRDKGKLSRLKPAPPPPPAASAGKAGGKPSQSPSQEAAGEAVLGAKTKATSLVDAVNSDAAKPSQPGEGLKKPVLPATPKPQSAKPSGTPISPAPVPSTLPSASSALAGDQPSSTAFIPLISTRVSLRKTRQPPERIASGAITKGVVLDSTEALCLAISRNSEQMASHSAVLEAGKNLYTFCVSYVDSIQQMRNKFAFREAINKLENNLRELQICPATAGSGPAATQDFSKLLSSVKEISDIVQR

For the compound `Cc1ccc(NC(=O)Nc2ccc(Cl)c(C(F)(F)F)c2)cc1C#Cc1cnc2c(Nc3cnn(C)c3)nccn12` [US11746110, Example 7], the IC50 was 32.1 nM. This counts as double-digit nanomolar. Next, `Cc1ccc(NC(=O)Nc2ccc(Cl)c(C(F)(F)F)c2)cc1C#Cc1cnc2c(Nc3cnn(C)c3)ccnn12` [US11746110, Example 16]: 82.9 nM.

In general, IC50 refers to the concentration needed to halve the response being measured.
